The source made the active and inactive calls. The rule behind the calls is not given here.
Legend:
ECV-304 [1] = experiment: Induction of type I ribosome-inactivating protein-mediated cytotoxicity of human ECV304 cells measured at 15 ug/ml after 72 hrs by XTT reduction assay; assay type: functional, cell-based
ECV-304 [2] = experiment: Cytotoxicity against human ECV304 cells at 15 ug/ml after 72 hrs by XTT reduction assay; assay type: cell-based; conditions: ecv-304, 72 h

Row | Structure (SMILES) | Activity (ECV-304 [1]) | Activity (ECV-304 [2])
1 | C[C@@H]1O[C@@H](O[C@H]2[C@H](OC(=O)[C@]34CCC(C)(C)C[C@H]3C3=CC[C@@H]5[C@@]6(C)CC[C@H](O[C@@H]7O[C@H](C(=O)O)[C@@H](O)[C@H](O[C@@H]8OC[C@@H](O)[C@H](O)[C@H]8O)[C@H]7O[C@@H]7O[C@H](CO)[C@H](O)[C@H](O)[C@H]7O)[C@@](C)(C=O)[C@@H]6CC[C@@]5(C)[C@]3(C)C[C@H]4O)O[C@H](C)[C@@H](O)[C@@H]2O)[C@H](O)[C@H](O[C@@H]2O[C@H](CO)[C@@H](O)[C@H](O)[C@H]2O)[C@H]1O[C@@H]1OC[C@@H](O)[C@H](O[C@@H]2OC[C@@H](O)[C@H](O)[C@H]2O)[C@H]1O | Active | Non-toxic
2 | C[C@@H]1O[C@@H](O[C@H]2[C@H](OC(=O)[C@]34CCC(C)(C)C[C@H]3C3=CC[C@@H]5[C@@]6(C)CC[C@H](O[C@@H]7O[C@H](C(=O)O)[C@@H](O)[C@H](O[C@@H]8OC[C@@H](O)[C@H](O)[C@H]8O)[C@H]7O[C@@H]7O[C@H](CO)[C@H](O)[C@H](O)[C@H]7O[C@@H]7O[C@H](CO)[C@H](O)[C@H](O)[C@H]7O)[C@@](C)(C=O)[C@@H]6CC[C@@]5(C)[C@]3(C)CC4)O[C@H](C)[C@@H](O)[C@@H]2O)[C@H](O)[C@H](O[C@@H]2O[C@H](CO)[C@@H](O)[C@H](O)[C@H]2O)[C@H]1O[C@@H]1OC[C@@H](O)[C@H](O[C@@H]2OC[C@@H](O)[C@H](O)[C@H]2O)[C@H]1O | Active | Non-toxic

From ChEMBL document CHEMBL2331128, “Nebulosides A-B, novel triterpene saponins from under-ground parts of Gypsophila arrostii Guss. var. nebulosa” (Bioorg Med Chem, 2013)
